Measured values reported in the CombiSolv-Exp solvation set (Vermeire and Green 2021).
Values belong to the molecule of their own block, whether it stands above or below them.

Test: solvent given as SMILES
[1] = in CCCCCCCCC=CCCCCCCCC(=O)OCC(COC(=O)CCCCCCCC=CCCCCCCCC)OC(=O)CCCCCCCC=CCCCCCCCC

SMILES: CCCCCl
solvation free energy, 298 K (in C1CCOC1): -4.57 kcal/mol
solvation free energy, 298 K (in C1CCOCC1): -4.52 kcal/mol
solvation free energy, 298 K (in C1COCCO1): -4.4 kcal/mol
solvation free energy, 298 K (in C=CCCCCCCCCCCCCCC): -3.77 kcal/mol
solvation free energy, 298 K (in CC(C)(C)O): -3.7 kcal/mol
solvation free energy, 298 K (in CC(C)=O): -4.26 kcal/mol
solvation free energy, 298 K (in CC(C)CC(C)(C)C): -3.91 kcal/mol
solvation free energy, 298 K (in CC(C)CO): -3.72 kcal/mol
solvation free energy, 298 K (in CC(C)OC(C)C): -4.21 kcal/mol
solvation free energy, 298 K (in CCC(C)O): -3.72 kcal/mol
solvation free energy, 298 K (in CCCBr): -4.49 kcal/mol
solvation free energy, 298 K (in CCCCCC): -4.05 kcal/mol
solvation free energy, 298 K (in CCCCCCC): -3.96 kcal/mol
solvation free energy, 298 K [1]: -3.93 kcal/mol
solvation free energy, 298 K (in CCCCCCCCCCCCCCCC): -3.68 kcal/mol
solvation free energy, 298 K (in CCCCCCCCCCO): -3.67 kcal/mol
solvation free energy, 298 K (in CCCCCCCCO): -3.71 kcal/mol
solvation free energy, 298 K (in CCCCOC): -4.37 kcal/mol
solvation free energy, 298 K (in CCCCOCCCC): -4.11 kcal/mol
solvation free energy, 298 K (in CCCO): -3.59 kcal/mol
solvation free energy, 298 K (in CCCOCCC): -4.23 kcal/mol
solvation free energy, 298 K (in CCI): -4.43 kcal/mol
solvation free energy, 298 K (in CCOC(C)=O): -4.31 kcal/mol
solvation free energy, 298 K (in CCOCC): -4.38 kcal/mol
solvation free energy, 298 K (in COC(C)(C)C): -4.3 kcal/mol
solvation free energy, 298 K (in ClC(Cl)(Cl)Cl): -4.31 kcal/mol
solvation free energy, 298 K (in ClCCCl): -4.43 kcal/mol
solvation free energy, 298 K (in Clc1ccccc1): -4.35 kcal/mol
solvation free energy, 298 K (in O): -0.23 kcal/mol
solvation free energy, 298 K (in [2H]O[2H]): -0.73 kcal/mol

SMILES: CC(=O)CCC(C)C
solvation free energy, 298 K (in NC=O): -4.52 kcal/mol

SMILES: Nc1ccc([N+](=O)[O-])cc1
solvation free energy, 298 K (in CC(C)CC(C)(C)C): -8.11 kcal/mol
solvation free energy, 298 K (in CC(C)CO): -11.6 kcal/mol
solvation free energy, 298 K (in CCC(C)O): -11.9 kcal/mol
solvation free energy, 298 K (in CCCCOC(C)=O): -12.7 kcal/mol
solvation free energy, 298 K (in CCCCOCCCC): -11.1 kcal/mol
solvation free energy, 298 K (in COC(C)=O): -13.2 kcal/mol

SMILES: CSSC
solvation free energy, 298 K (in O): -1.74 kcal/mol

SMILES: CC(C(=O)O)c1ccc(C(=O)c2cccs2)cc1 (stereo not drawn)
solvation free energy, 298 K (in O): -13.9 kcal/mol

SMILES: CCCCCC=CCC=CCCCCCCCC(=O)OC
solvation free energy, 298 K (in O): -2.48 kcal/mol

SMILES: CC(C)NC(C)C
solvation free energy, 298 K (in O): -3.22 kcal/mol

SMILES: CC(C)COCC(C)C
solvation free energy, 298 K (in CCCCCCCCCCCCCCCC): -4.72 kcal/mol
solvation free energy, 298 K (in CCCCCCCCO): -4.62 kcal/mol

SMILES: COc1cc(C=O)c(Cl)c(OC)c1O
solvation free energy, 298 K (in O): -7.78 kcal/mol

SMILES: Clc1ccc(-c2cc(Cl)c(Cl)c(Cl)c2)cc1Cl
solvation free energy, 298 K (in O): -3.79 kcal/mol

SMILES: CC1CCCC1
solvation free energy, 298 K (in CC1CCS(=O)(=O)C1): -2.51 kcal/mol
solvation free energy, 298 K (in CC#N): -2.8 kcal/mol
solvation free energy, 298 K (in CCCCCCCCCC): -3.93 kcal/mol
solvation free energy, 298 K (in CCCCCCCO): -3.51 kcal/mol
solvation free energy, 298 K (in CCCCCO): -3.51 kcal/mol
solvation free energy, 298 K (in CN1CCCC1=O): -2.99 kcal/mol
solvation free energy, 298 K (in CN1CCCCC1=O): -3.16 kcal/mol
solvation free energy, 298 K (in CN(C)C=O): -3 kcal/mol
solvation free energy, 298 K (in CNC=O): -2.67 kcal/mol
solvation free energy, 298 K (in COCCO): -2.99 kcal/mol
solvation free energy, 298 K (in CS(C)=O): -2.47 kcal/mol
solvation free energy, 298 K (in O): 1.6 kcal/mol
solvation free energy, 298 K (in O=CN1CCOCC1): -2.47 kcal/mol
solvation free energy, 298 K (in OC1CCCCC1): -3.44 kcal/mol
solvation free energy, 298 K (in OCCOCCO): -1.85 kcal/mol
solvation free energy, 298 K (in OCCS): -2.33 kcal/mol
solvation free energy, 298 K (in OCc1ccccc1): -3.01 kcal/mol

SMILES: ClC=CCl
solvation free energy, 298 K (in COC(C)=O): -3.98 kcal/mol
solvation free energy, 298 K (in ClCCCl): -3.71 kcal/mol

SMILES: CNC(=O)Oc1cccc2ccccc12
solvation free energy, 298 K [1]: -12.6 kcal/mol

SMILES: COc1ccc(C=O)cc1O
solvation free energy, 298 K (in O): -9.04 kcal/mol

SMILES: CCCCN(CCC)N=O
solvation free energy, 298 K (in CC(C)CC(C)(C)C): -7.18 kcal/mol
solvation free energy, 298 K (in O): -5.12 kcal/mol

The remaining lines, values ahead:

solvation free energy, 298 K (in O): -12.7 kcal/mol
solvation free energy, 298 K (in O=C1CCCCC1): -12.1 kcal/mol
SMILES: O=C(O)CCCC(=O)O

solvation free energy, 298 K (in CCCCCCCCO): 1.76 kcal/mol
solvation free energy, 298 K (in O): 2.35 kcal/mol
SMILES: [H][H]

solvation free energy, 298 K (in O): -14.5 kcal/mol
SMILES: O=C(c1ccccc1[N+](=O)[O-])N(O)c1ccccc1

solvation free energy, 298 K (in O): 0.46 kcal/mol
SMILES: CC1=CCC2(C)CCCC(C)(C)C23CC13 (stereo not drawn)

solvation free energy, 298 K (in O): -9.26 kcal/mol
SMILES: CCCCCC(=O)c1c(C)[nH]n(-c2ccccc2)c1=O

solvation free energy, 298 K (in CCCCCCCC): -4.95 kcal/mol
solvation free energy, 298 K (in CCCCCCCCCC): -5.29 kcal/mol
solvation free energy, 298 K (in O): -5.5 kcal/mol
SMILES: Cc1ccc(C=O)o1

solvation free energy, 298 K (in O): -4.71 kcal/mol
SMILES: CCC(=O)CC(=O)CC

solvation free energy, 298 K (in O): -6.25 kcal/mol
SMILES: CCc1cccc(O)c1

solvation free energy, 298 K (in O): -2.55 kcal/mol
SMILES: COc1cc(Cl)c(Cl)c(Cl)c1Cl

solvation free energy, 298 K (in O): 0.78 kcal/mol
SMILES: CC1=C2CC3CCC(C)C2(CC1)C3(C)C (stereo not drawn)

solvation free energy, 298 K (in O): -6.33 kcal/mol
SMILES: CC=Cc1ccc(O)c(OC)c1

solvation free energy, 298 K (in O): -2.5 kcal/mol
SMILES: Cc1ccc2c(C)ccc(C(C)C)c2c1

solvation free energy, 298 K (in O): -9.07 kcal/mol
SMILES: O=C(O)CCCc1ccccc1

solvation free energy, 298 K (in CCOC(C)=O): -13.6 kcal/mol
solvation free energy, 298 K (in O): -13 kcal/mol
SMILES: O=C(O)Cc1ccc(O)cc1

solvation free energy, 298 K (in C1COCCO1): -12.3 kcal/mol
SMILES: Nc1ccc(O)cc1
